Test results published in the NIST ThermoML archive (doi:10.1021/je0501639).
“And” between values parts separate entries of the source, which are not always exact repeats. Equal values may be shown once.

Experiments:
[1] = 100.8 kPa, Liquid
[2] = refractive index (Na D-line) (dimensionless); details: 101.33 kPa, Liquid, Standard Abbe refractometry
[3] = refractive index (Na D-line) (dimensionless); xn = mol fraction of the nth substance listed; details: 100.8 kPa, Liquid, Standard Abbe refractometry
[4] = xn = mol fraction of the nth substance listed; details: 100.8 kPa, Liquid

CC(C)CC(C)(C)C [2,2,4-trimethylpentane]
Details | mass density, 298.15 K [kg/m3] | mass density, 308.15 K [kg/m3] | mass density, 318.15 K [kg/m3] | refractive index, 298.15 K | refractive index, 308.15 K | refractive index, 318.15 K | viscosity, 298.15 K | viscosity, 308.15 K [mPa·s] | viscosity, 318.15 K [mPa·s]
[1] | 687.89 | 679.55 | 671.1 | – | – | – | 0.474 mPa·s and 0.475 mPa·s | 0.425 | 0.38
[2] | – | – | – | 1.38898 | 1.38398 | 1.37898 | – | – | –

CC(C)CC(C)(C)C [2,2,4-trimethylpentane] + CC(C)(C)O
x2 = 0
Details | mass density, 298.15 K [kg/m3] | mass density, 308.15 K [kg/m3] | mass density, 318.15 K [kg/m3] | refractive index, 298.15 K | refractive index, 308.15 K | refractive index, 318.15 K | viscosity, 298.15 K [mPa·s] | viscosity, 308.15 K [mPa·s] | viscosity, 318.15 K [mPa·s]
[3] | – | – | – | 1.38898 | 1.38398 | 1.37898 | – | – | –
[4] | 687.89 | 679.55 | 671.1 | – | – | – | 0.475 | 0.425 | 0.38

CC(C)(C)O [2-methylpropan-2-ol]
Details | mass density, 298.15 K [kg/m3] | mass density, 308.15 K [kg/m3] | mass density, 318.15 K [kg/m3] | refractive index, 298.15 K | refractive index, 308.15 K | refractive index, 318.15 K
[1] | 780.99 | 770.7 | 760.05 | – | – | –
[2] | – | – | – | 1.38481 | 1.3796 | 1.37416

[1], Falling or rolling sphere viscometry
Details | viscosity [mPa·s]
298.15 K | 4.43
308.15 K | 2.622
318.15 K | 1.708

CCO [ethanol]
Details | mass density, 298.15 K [kg/m3] | mass density, 308.15 K [kg/m3] | mass density, 318.15 K [kg/m3] | refractive index, 298.15 K | refractive index, 308.15 K | refractive index, 318.15 K
[1] | 785.1 | 776.43 | 767.61 | – | – | –
[2] | – | – | – | 1.35932 | 1.35509 | 1.351 and 1.35095

[1], Falling or rolling sphere viscometry
Details | viscosity [mPa·s]
298.15 K | 1.085
308.15 K | 0.906
318.15 K | 0.756

CCO [ethanol] + CC(C)(C)O
x1 = 1
Details | mass density, 298.15 K [kg/m3] | mass density, 308.15 K [kg/m3] | mass density, 318.15 K [kg/m3] | refractive index, 298.15 K | refractive index, 308.15 K | refractive index, 318.15 K
[3] | – | – | – | 1.35932 | 1.35509 | 1.351
[4] | 785.1 | 776.43 | 767.61 | – | – | –

[4], Falling or rolling sphere viscometry, x1 = 1
Details | viscosity [mPa·s]
298.15 K | 1.085
308.15 K | 0.906
318.15 K | 0.756

CCO [ethanol] + CC(C)CC(C)(C)C
x1 = 1
Details | mass density, 298.15 K [kg/m3] | mass density, 308.15 K [kg/m3] | mass density, 318.15 K [kg/m3] | refractive index, 298.15 K | refractive index, 308.15 K | refractive index, 318.15 K | viscosity, 298.15 K [mPa·s] | viscosity, 308.15 K [mPa·s] | viscosity, 318.15 K [mPa·s]
[3] | – | – | – | 1.35932 | 1.35509 | 1.35095 | – | – | –
[4] | 785.1 | 776.43 | 767.61 | – | – | – | 1.085 | 0.906 | 0.756
